Laboratory results published in the OligoGym collection.
“And” between values parts separate entries of the source, which are not always exact repeats. Equal entries are not always repeated. After the bases stand the sugars from the 5' end (letter, count) and the backbone: PS all phosphorothioate, else s phosphorothioate and o phosphodiester by linkage. Methylation of C is not given here. e = 2'-O-(2-methoxyethyl) (MOE); k = constrained ethyl (cEt); d = 2'-deoxy (DNA)

Biological target: KRAS
Settings: ASO

Sequence | target mRNA inhibition (A431, 2 µM) | also measured
ATTGTTTAAAAAAAAA (sugars k3 d10 k3, PS) | 0% | –
ATTTCTGATGTGACTC (sugars k3 d10 k3, PS) | 49% | –
ATTTGTCAGCAGGACC (sugars k3 d10 k3, PS) | 35% | –
CAAATGCTAATAATTT (sugars k3 d10 k3, PS) | 0% | –
CAGTATTAACACAGAA (sugars k3 d10 k3, PS) | 7% | –
CAGTGTGACTCAGTTA (sugars k3 d9 k3 e1, PS) | 42% | –
CAGTGTGACTCAGTTA (sugars kkddddddddkekekk, PS) | 63% | target mRNA inhibition (A431, 0.185 µM): 0%; target mRNA inhibition (A431, 0.556 µM): 36%; target mRNA inhibition (A431, 1.667 µM): 58%; target mRNA inhibition (A431, 5 µM): 67%
CATGTAAATATAGCCC (sugars k3 d10 k3, PS) | 5% | –
CATTGCTAGTTCAAAA (sugars k3 d10 k3, PS) | 9% | –
CATTTATGTGACTAGA (sugars k3 d10 k3, PS) | 56% | –
CATTTATGTGACTAGA (sugars kkddddddddkekekk, PS) | 20% | –
CCAGTATTAACACAGA (sugars k3 d10 k3, PS) | 37% | –
CCAGTGATACTTTCAC (sugars kddddddddddkekek, PS) | 0% | –
CCAGTGTTAAGAGAAC (sugars kkddddddddkekekk, PS) | 53% | –
CCAGTGTTAAGAGAAC (sugars kkkddddddddkekek, PS) | 37% | –
CTATAATAATCCCCAT (sugars k3 d10 k3, PS) | 6% | –
CTATTCATACCAGGTT (sugars k3 d10 k3, PS) | 33% | –
CTCTTGATTTGTCAGC (sugars k3 d10 k3, PS) | – | target mRNA inhibition (A431, 0.037 µM): 66%; target mRNA inhibition (A431, 0.125 µM): 64% and 57%; target mRNA inhibition (NCI-H460, 0.037 µM): 55.4%
CTTATGCAGAGAAAAC (sugars k3 d10 k3, PS) | 8% | –
CTTGATTTGTCAGCAG (sugars kkdddddddddkekek, PS) | 49% | –
GACTAATAGCAGTGGA (sugars k3 d10 k3, PS) | 52% and 62% | –
GAGGCAAGATGACACT (sugars k3 d10 k3, PS) | 0% | –
GAGTCTTTATAGTAAT (sugars kddddddddddkekek, PS) | 11% | –

Sequence | target mRNA inhibition (A431, 2 µM) | also measured
GATTGTGCTGAGCTTG (sugars kkddddddddddkeke, PS) | 19% | –
GATTGTGCTGAGCTTG (sugars kkkddddddddkekek, PS) | 37% | –
GATTTGTCAGCAGGAC (sugars k3 d10 k3, PS) | 47% | target mRNA inhibition (A431, 0.037 µM): 68%; target mRNA inhibition (A431, 5 µM): 96% and 93%; target mRNA inhibition (NCI-H460, 0.037 µM): 60.1%
GATTTGTCAGCAGGAC (sugars kddddddddddkekek, PS) | 57% | target mRNA inhibition (A431, 0.185 µM): 16%; target mRNA inhibition (A431, 0.556 µM): 46%; target mRNA inhibition (A431, 1.667 µM): 62%; target mRNA inhibition (A431, 5 µM): 78%
GATTTGTCAGCAGGAC (sugars kdddddddddkekeke, PS) | 32% | –
GCAAGATGACACTAAT (sugars k3 d10 k3, PS) | 30% | –
GCAATGTTAATTTAAC (sugars k3 d10 k3, PS) | 17% | –
GCAGTGTGACTCAGTT (sugars k3 d10 k3, PS) | 48% | –
GCTAAAACAAATGCTA (sugars k3 d10 k3, PS) | 33% | –
GCTAATAATTTAGTGT (sugars k3 d10 k3, PS) | 18% | –
GGAGTCTTTATAGTAA (sugars kkkddddddddkekek, PS) | 0% | –
GGCATTGCTAGTTCAA (sugars k3 d10 k3, PS) | 43% | –
GGTGAATATCTTCAAA (sugars k3 d10 k3, PS) | 28% | –
GGTGTAACATAGGTTA (sugars kddddddddddkekek, PS) | 64% | target mRNA inhibition (A431, 0.185 µM): 15%; target mRNA inhibition (A431, 0.556 µM): 39%; target mRNA inhibition (A431, 1.667 µM): 62%; target mRNA inhibition (A431, 5 µM): 80%
GGTGTAACATAGGTTA (sugars kdddddddddkekeke, PS) | 57% | target mRNA inhibition (A431, 0.185 µM): 1%; target mRNA inhibition (A431, 0.556 µM): 35%; target mRNA inhibition (A431, 1.667 µM): 56%; target mRNA inhibition (A431, 5 µM): 71%; target mRNA inhibition (NCI-H460, 0.037 µM): 52.2%
GTCCAGTGATACTTTC (sugars k3 d10 k3, PS) | 44% | –
GTCCAGTGATACTTTC (sugars kdddddddddkekeke, PS) | 20% | –
GTCCAGTGATACTTTC (sugars kkkdddddddddkeke, PS) | 33% | –
GTCCAGTGATACTTTC (sugars kkkddddddddkdkdk, PS) | 30% | –
GTCTATTCATACCAGG (sugars k3 d10 k3, PS) | 60% | –
GTGTAACATAGGTTAA (sugars k3 d10 k3, PS) | 30% | –
GTGTTTATGCAATGTT (sugars kkdddddddddkekek, PS) | 65% | target mRNA inhibition (A431, 0.185 µM): 22%; target mRNA inhibition (A431, 0.556 µM): 54%; target mRNA inhibition (A431, 1.667 µM): 77%; target mRNA inhibition (A431, 5 µM): 83%
TAAAACAAATGCTAAT (sugars k3 d10 k3, PS) | 5% | –

Sequence | target mRNA inhibition (A431, 2 µM) | also measured
TAATTACTTATGCAGA (sugars k3 d10 k3, PS) | 17% | –
TACTTATGCAGAGAAA (sugars k3 d10 k3, PS) | 0% | –
TAGTTTCACATAGCAA (sugars k3 d10 k3, PS) | 51% | –
TAGTTTCCATTGCCTT (sugars k3 d10 k3, PS) | 16% | –
TATCTTGTTGAGCTAT (sugars k3 d10 k3, PS) | 33% | –
TATGCAATGTTAATTT (sugars k3 d10 k3, PS) | 8% | –
TCCAGTGATACTTTCA (sugars kkdddddddddkekek, PS) | 37% | –
TCCAGTGATACTTTCA (sugars kkddddddddkekekk, PS) | 24% | –
TCCATTTATGTGACTA (sugars kkkdddddddddkeke, PS) | 8% | –
TCTATTCATACCAGGT (sugars k3 d10 k3, PS) | 26% | –
TCTGTCTATTCATACC (sugars k3 d10 k3, PS) | 12% | –
TCTTATGGTTAGGGGA (sugars k3 d10 k3, PS) | 8% | –
TCTTGATTTGTCAGCA (sugars kkddddddddddkeke, PS) | 91% and 92% | target mRNA inhibition (A431, 0.037 µM): 84%; target mRNA inhibition (A431, 0.125 µM): 65% and 61%; target mRNA inhibition (NCI-H460, 0.037 µM): 67.6%
TGAATTAGTCTCCATT (sugars k3 d10 k3, PS) | 17% | –
TGATTTGTCAGCAGGA (sugars kdddddddddkekeke, PS) | 32% | –
TGATTTGTCAGCAGGA (sugars kkdddddddddkdkdk, PS) | 15% | –
TGCAGTGTGACTCAGT (sugars k3 d10 k3, PS) | 55% | –
TGCTAATAATTTAGTG (sugars k3 d10 k3, PS) | 6% | –
TGCTGTGAAACTCTCT (sugars k3 d10 k3, PS) | 27% | –
TGCTGTGAAACTCTCT (sugars kkdddddddddkdkdk, PS) | 26% | –
TGGTGTAACATAGGTT (sugars kkdddddddddkekek, PS) | 62% | target mRNA inhibition (A431, 0.185 µM): 21%; target mRNA inhibition (A431, 0.556 µM): 45%; target mRNA inhibition (A431, 1.667 µM): 66%; target mRNA inhibition (A431, 5 µM): 83%
